Results on one molecule are retold here after US20120040939A1, “MEDICINAL USE OF 5-BENZYLAMINOSALICYLIC ACID DERIVATIVE OR ITS SALT” (priority 2009, published 2012).

What all share (format): in vivo
Series [1] concerns Male ICR mice. Kind of series: Tail suspension test (TST), antidepressant effect. The conditions noted are these: twice daily, final 4 min of 6 min test, 1 h after treatment. Here is the method: The effectiveness of the compound was evaluated using a tail-suspension test as in vivo method for depression. In this test immobility time of animals typically for 5-10 minutes is recorded using a manual or an automated device.
Male ICR mice weighing 28-30 g of body weight were used throughout the study. Experimental animals were kept in an animal breeding room with a 12 h dark/12 h light cycle and accommodated by 8 mice per cage supplied freely with water and feeding. The mice consisted of 8 animals per group were randomly allocated to the treatment groups.
Compound 2 was suspended in 10% lutrol solution and the all suspended solutions were administered orally to the mice twice daily at a volume of 4 ml/kg. The control group was treated only with 10% lutrol solution in the same manner. All the treatment of drugs or vehicle to the animals were given 1 hour before the test (n=8/group).
This test was evaluated according to the method described in a previous publication [Psycopharmacology 85, 367-370, Steru et al. (1985)]. At the day of experiment, the mice were acclimatized in the testing room over 60 minutes and given with the compound, and then the test was conducted. After 1 h after drug treatment, the mice were taped with experimental adhesive tape, at approximately 1 cm from the tip of the tail. The mice were individually suspended on an experimental shelf about 58 cm above a table top by attaching the adhesive tape at the tip of the tail to the experimental shelf. And after that, total immobility time was measured for 6 min in the absence of noise. The total immobility time was measured during the final 4 min of a 6 min test session and the data were expressed as mean and analyzed by one-way ANOVA followed by Tukey's HSD (Honestly Significant Difference) post hoc comparison.

Another series has as its system Sprague-Dawley (SD) rats. Kind of series: Water immersion restraint stress (WIRS) gastric damage model. Conditions: 30 mg/kg, given 1 hour before 10 hours WIRS. The method, then: The Sprague-Dawley (SD) rats weighing 200 g of body weight were deprived of food for over 24 hours and then were given with the experimental compound. After 1 hour, the rats were placed in a stress cage and immersed into water at 24° C. for 10 hours to induce WIRS
The SD rats weighing 200 g of body weight were deprived of food for 24 h and then were given with 30 mg/kg of compound 2. After 1 hour, the rats were placed in a stress cage and immersed into water for 10 hours. After WIRS for 10 hours, the rats were sacrificed under anesthesia with ether. Each stomach was isolated, soaked and fixed in 10 ml of 2% formalin solution for 10 minutes, and then opened along the greater curvature of the stomach. After spreading the stomach, stress-induced hemorrhagic lesions were examined macroscopically, and the results were shown in FIG. 2.

Series [2] has as its system Male ICR mice. Kind of series: Locomotor activity using open field test. Conditions: 1.25-50 mg/kg oral, twice daily; 1 hour before the test. The method, then: The locomotor activity using open field test measured to know influence of drug treatment on activity in animals. Male ICR mice weighing 20-23 g of body weight were used throughout the study.
Experimental animals were kept in an animal breeding room with a […] cycle and accommodated by 8 mice per cage supplied freely with water and feeding. The mice consisted of 8 animals per group were randomly allocated to the treatment groups.
(§1) Compound 2 was suspended in 10% lutrol solution and all the suspended solutions were administered orally to the mice twice daily at a volume of 5 ml/kg. The control group was treated only with 10% lutrol solution in the same manner. All the treatment of drugs or vehicle to the animals were given 1 hour before the test (n=8/group).
The open field was consisted of square arena (58 cm×58 cm) surrounded by a 30 cm height wall. […] At the start of each trial, a mouse was placed in a corner of the field and was allowed to freely move the arena and the moving trajectory for 5 min was measured. The behavior of animals was recorded and analyzed using a videotracking software (Etho Vision 3.0, Noldus Information Technology, Leesburg, Va.) attached to the ceiling above the middle of the arena.
The collected data were analyzed by one-way ANOVA followed by Tukey's HSD (Honestly Significant Difference) post hoc comparison.

Series [3] has as its system male C57BL/6 mice. As to the kind of experiment: Forced swimming test, antidepressant effect. Conditions: final 4 min of 6-min session. Here is the method:
Forced swimming test is used to select compounds with therapeutic efficacy for depression. […] The immobility time is counted whenever the animal remained floating passively in the water without struggling except minimal movement to protrude its head above the water surface.
Nine-week-old male C57BL/6 mice weighing 20-23 g of body weight were used through this study. Experimental animals were kept in an animal breeding room with a 12 h dark/12 h light cycle and accommodated by 8 mice per cage supplied freely with water and feeding. The mice consisted of 8 animals per group were randomly allocated to the treatment groups.
as §1
At the day of the experiment, the mice were acclimatized in the testing room over 60 minutes, orally given with the compound 2 or vehicle control, and received the forced swimming test. For the forced swimming test, a mouse was individually forced to swim inside an open glass cylindrical bath with height of 26 cm and diameter of 14 cm filled with water at 24±1° C. up to 16 cm high from the bottom so that the mouse tail could not reach the bottom. One hour after the mouse were orally given compound 2 and control vehicle, then the mice were exposed to forced swimming for 6 min in the water bath and their movement was recorded using a video camera system. The total duration of immobility was measured as a mean during the final 4 min of a 6-min test session and the data were statistically analyzed with one-way ANOVA followed by Tukey's HSD (Honestly Significant Difference) post hoc comparison.

In series [4] the test system is male C57BL/6 mice. As to the kind of experiment: Repeated restraint stress test with forced swim test as index for depression. Conditions: for decrease of immobility time compared with stressed control group (control 2): forced swim test; for decrease of immobility time compared with unstressed group (control 1): no stress, forced swimming test. Here is the method: To test the efficacy of compounds on a stress-induced depression a restraint stress animal model was used. After evoking depression symptoms in a mouse corresponding to a human depression by exposing a stressed condition that it was placed in a narrow space to be unable to move, whether the compounds have any anti-depression effects were tested after treatment to this animal.
Nine-week-old male C57BL/6 mice weighing 20-23 g of body weight were used through this study. Experimental animals were kept in an animal breeding room with a 12 h dark/12 h light cycle and accommodated by 5-6 mice per cage supplied freely with water and feeding. The mice consisted of 11 animals per group were randomly allocated to the treatment groups.
Compound 2 was suspended in 10% lutrol solution and all the suspended solutions were administered orally to the mice twice daily at a volume of 5 ml/kg. The control group was treated only with 10% lutrol solution in the same manner. All the treatment of drugs or vehicle to the animals were given 1 hour before the test (n=11/group).
Animals were subjected to restraint-stress one hour after compound 2 or 10% lutrol was administered orally. Mice were exposed to restraint stress everyday 2 hr for 14 days and received a forced swim test such as <Example 4> as an index for depression.

Series [5] relates to male C57BL/6 mice. As to the kind of experiment: Stress-induced anxiety (restraint stress), elevated plus maze (EPM). The conditions noted are these: EPM 5 minutes. The method, then: To evaluate the effect of compound 2 on stress-induced anxiety, we used a restraint stress animal model. Anxiety was evoked by exposing stress that a mice was restrained to be immovable in a narrow space, and whether the compound could show anxiolytic effect after administration the animals.
When experimental animals are exposed to stress, various physiological changes occur, which can be measured through several behavioral tests. In this study, anxiety of experimental animals was evaluated by an elevated plus maze (EPM). EPM apparatus consisted of two open arms, and two closed arms which are horizontally crossed. It is designed that the cross path is located 60 cm above the floor for the animals to feel anxiety. […]
At the day of experiment, animals exposed to restraint stress after animals were acclimatized to testing room over 60 minutes, and then were orally administered with the compound. One hour after administration the oral administration of compound 2 or lutrol, experimental animals were placed at the center of EPM and the animal behaviors were recorded during total 5 minutes using a camera mounted on the ceiling and a computer program (etho vision 3.0 (Noldus Information Technology)). The collected data were expressed as % time spent in open arms and the statistical analysis was done using one-way ANOVA followed by LSD (Least significant difference) post hoc comparisons.

The mark [6] stands for this setting: 2.5 mg/kg oral BID + restraint stress 2 hr daily for 14 days.
Setting [7] is: 5 mg/kg oral BID + restraint stress 2 hr daily for 14 days.

With `O=C(O)c1cc(NCCc2ccc(C(F)(F)F)cc2)ccc1O` [compound 2, 2-hydroxy-5-[2-(4-trifluoromethyl-phenyl)-ethylamino]-benzoic acid], the “decrease of total immobility time compared with the control group” value is given as 46% with Male ICR mice [1] (1.25 mg/kg oral); 43% in the series on Male ICR mice [1] (2.5 mg/kg oral); 42% with Male ICR mice [1] (5 mg/kg oral); 38% in the series on Male ICR mice [1] (12.5 mg/kg oral); 54% in the series with Male ICR mice [1] (25 mg/kg oral); 57% with Male ICR mice [1] (50 mg/kg oral). In the series with Sprague-Dawley (SD) rats, the “WIRS-induced gastric lesion index” value was “definitely reduced”. The “locomotor activity (open field, 5 min)” value in the series with Male ICR mice [2] is reported as “not different among groups”. The “decrease of immobility time compared with the vehicle control group” value was determined as 31% in the series with male C57BL/6 mice [3] (1.25 mg/kg oral BID), 34% in the series with male C57BL/6 mice [3] (2.5 mg/kg oral BID), 30% in the series on male C57BL/6 mice [3] (5 mg/kg oral BID) and 34% in the series with male C57BL/6 mice [3] (12.5 mg/kg oral BID). Besides, the “decrease of immobility time compared with stressed control group (control 2)” value in the series on male C57BL/6 mice [4] (setting [6]) is on record as 32%; with male C57BL/6 mice [4] (setting [7]) it was 39%. The “decrease of immobility time compared with unstressed group (control 1)” value is reported as 21% in the series on male C57BL/6 mice [4] (2.5 mg/kg oral BID for 2 weeks) and 26% in the series on male C57BL/6 mice [4] (5 mg/kg oral BID for 2 weeks). The results for the “% time spent in open arm, increase compared with the stressed group (control 2)” value in the series on male C57BL/6 mice [5] (setting [6]) and in the series on male C57BL/6 mice [5] (setting [7]) were 24% and 23%, respectively.
